For one data set, the target named is Nav1.6 channel (Homo sapiens (Human), UniProt Q9UQD0). The data set is described as follows: Nav1.6 inhibition, IonWorks Quattro electrophysiology. The class given is cell-based. Conditions: for inhibition at 1 µM / inhibition at 5 µM: normalized to vehicle (0%) and maximal inhibition control (100%). The procedure:
IonWorks Quattro electrophysiological platform
The compounds were prepared in DMSO at 300× the final assay concentrations of 1 and 5 μM.
The 300× DMSO stock solutions were transferred into assay plates where 2 μl per well of each 300× stock solution were placed. All assay plates were stored at −80° C. until the day of assay.
On the day of the assay, the appropriate assay plate was thawed at room temperature, centrifuged, and 198 μl of external recording solution was added and mixed thoroughly. This provided a 1:100 dilution. A further 1:3 dilution occurred upon addition to the cells in the IonWorks Quattro electrophysiological platform, giving a 1:300 dilution in total. On each assay plate, at least 8 wells were reserved for vehicle control (0.3% DMSO) and at least 8 wells for each positive control specific to the cell line tested. The positive controls were tested at a maximal blocking and an approximate IC50 concentration. As positive control Lidocaine at concentrations of 30 and 1000 μM was used.
The solutions for recording Nav1.6 currents were as follows:
Amphotericin B was used to obtain electrical access to the cell interior at a final concentration of 200 μg/ml in internal recording solution.
State-dependent inhibition: Sodium channels when held at depolarized potential or long test pulse, the channels open and inactivate and then stay inactivated until the membrane potential is stepped back to hyperpolarized potentials, when the inactivated channels recover from inactivation into closed state.
Cells were held at −120 mV. In order to completely inactivate the sodium channels (pulse 1), the cells were pulsed to +0 mV for 2500 ms and stepped back to −120 mV for 10 ms (to completely recover from inactivation, however channels that had drugs bound to them will not recover from inactivation) before stepping to +0 mV for 20 ms (pulse 2).
Assay Control Results Both the positive and vehicle control data associated with each cell line assayed are shown below as an example. The mean is shown for each positive and negative control as solid symbol with the total number of individual well replicates given next to the solid symbol. In addition, the individual data of each well are shown on the graph as open symbols so that the variation about the mean value can be readily assessed.
Shown below are the assay controls for the Nav1.6 IonWorks Quattro assay.
Tables 3 and 4 show the normalized percentage inhibition of Nav1.6 channel. […] (see also the figure Assay Control Results above).

The target of another data set is human MDR1 (P-gp) (Homo sapiens (Human), UniProt P08183). The data set is described as follows: MDCK assay P-gp: permeability across MDCK-MDR1 monolayers. It is filed as in vitro ADME. Conditions: for Papp A→B at 2 h: MDCK-MDR1, apical-to-basal, pH 7.4; for efflux ratio at 2 h: pH 7.4, MDCK-MDR1, Papp (b-a) / Papp (a-b), read-out: efflux ratio PEBA/PEAB. On the procedure: The MDCK assays provide information on the potential of a compound to pass the blood brain barrier. Permeability measurements across polarized, confluent MDCK-MDR1 cell monolayers grown on permeable filter supports are used as an in vitro absorption model: apparent permeability coefficients (PE) of the compounds across the MDCK-MDR1 cell monolayers are measured (pH 7.4, 37° C.) in apical-to-basal (AB) and basal-to-apical (BA) transport direction. The AB permeability (PEAB) represents drug absorption from the blood into the brain and the BA permeability (PEBA) drug efflux from the brain back into the blood via both, passive permeability as well as active transport mechanisms mediated by efflux and uptake transporters that are expressed on the MDCK-MDR1 cells, predominantly by the overexpressed human MDR1. Identical or similar permeabilities in both transport directions indicate passive permeation (PEBA/PEAB≤1), vectorial permeability points to additional active transport mechanisms. Higher PEBA than PEAB (PEBA/PEAB>5) indicates the involvement of active efflux mediated by MDR1, which might compromise the goal to achieve sufficient brain exposure. Therefore, this assay provides valuable support for selection of compounds applicable for further in vivo testing. High permeability not limited by efflux at the blood brain barrier is a favourable characteristic for compounds that are to be used for drugs acting primarily in the CNS.
Sequence of human MDR1 (P-gp) (P08183 whole entry): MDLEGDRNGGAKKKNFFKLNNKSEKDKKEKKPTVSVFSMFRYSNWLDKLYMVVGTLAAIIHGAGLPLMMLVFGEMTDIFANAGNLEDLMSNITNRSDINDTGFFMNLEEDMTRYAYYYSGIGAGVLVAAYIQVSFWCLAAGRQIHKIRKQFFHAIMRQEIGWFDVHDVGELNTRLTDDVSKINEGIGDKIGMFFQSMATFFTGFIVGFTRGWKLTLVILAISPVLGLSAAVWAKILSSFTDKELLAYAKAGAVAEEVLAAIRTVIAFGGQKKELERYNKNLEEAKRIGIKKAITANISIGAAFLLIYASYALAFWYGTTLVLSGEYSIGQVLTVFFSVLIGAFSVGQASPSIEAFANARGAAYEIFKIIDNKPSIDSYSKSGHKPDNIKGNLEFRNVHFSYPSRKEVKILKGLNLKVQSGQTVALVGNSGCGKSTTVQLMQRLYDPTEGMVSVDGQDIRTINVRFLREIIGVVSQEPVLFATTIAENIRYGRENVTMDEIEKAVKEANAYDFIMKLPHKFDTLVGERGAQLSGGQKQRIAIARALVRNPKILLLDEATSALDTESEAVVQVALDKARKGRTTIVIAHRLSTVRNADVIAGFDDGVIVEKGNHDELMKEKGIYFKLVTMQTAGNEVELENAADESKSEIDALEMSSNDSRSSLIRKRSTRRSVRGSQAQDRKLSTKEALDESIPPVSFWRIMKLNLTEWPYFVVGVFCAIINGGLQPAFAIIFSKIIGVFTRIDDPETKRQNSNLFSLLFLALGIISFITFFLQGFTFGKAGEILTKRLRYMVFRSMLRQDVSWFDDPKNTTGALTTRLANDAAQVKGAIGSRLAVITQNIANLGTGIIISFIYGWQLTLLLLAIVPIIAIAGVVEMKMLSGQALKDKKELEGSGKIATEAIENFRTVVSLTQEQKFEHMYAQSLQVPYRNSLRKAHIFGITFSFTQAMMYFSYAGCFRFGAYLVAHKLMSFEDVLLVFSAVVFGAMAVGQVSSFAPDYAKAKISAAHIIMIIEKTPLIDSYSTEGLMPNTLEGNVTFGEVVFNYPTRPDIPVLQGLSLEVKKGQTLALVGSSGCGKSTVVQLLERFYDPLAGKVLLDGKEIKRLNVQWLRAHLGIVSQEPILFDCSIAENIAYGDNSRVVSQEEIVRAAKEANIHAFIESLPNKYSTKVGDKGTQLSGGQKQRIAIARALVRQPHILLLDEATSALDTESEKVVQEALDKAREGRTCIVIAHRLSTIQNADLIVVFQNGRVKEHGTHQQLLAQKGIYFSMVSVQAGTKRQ
Apparent permeability coefficients (Papp) of the compounds across the MDCK-MDR1 monolayers (MDCKII cells transfected with human MDR1 cDNA expression plasmid) are measured in apical-to-basal (AB) and basal-to-apical (BA) direction.
MDCK-MDR1 cells (6×10^5 cells/cm^2) are seeded on filter inserts (Corning, Transwell, polycarbonate, 0.4 μm pore size) and cultured for 9 to 10 days. Compounds dissolved in DMSO stock solution (1-20 mM) are diluted with HTP-4 aqueous buffer (128.13 mM NaCl, 5.36 mM KCl, 1 mM MgSO4, 1.8 mM CaCl2, 4.17 mM NaHCO3, 1.19 mM Na2HPO4, 0.41 mM NaH2PO4, 15 mM HEPES, 20 mM glucose, pH 7.4) supplemented with 0.25% BSA to prepare the transport solutions (final concentration: 1 or 10 μM, final DMSO<=0.5%). The transport solution is applied to the apical or basolateral donor side for measuring A-B or B-A permeability, respectively. The receiver side contains HTP-4 buffer supplemented with 0.25% BSA. Samples are collected at the start and end of experiment from the donor and at various time intervals for up to 2 hours also from the receiver side for concentration measurement by HPLC-MS/MS (RapidFire High-throughput MS System (Agilent) coupled to QTrap 6500 (AB Sciex) or TSQ Vantage (Thermo Scientific)). Sampled receiver volumes are replaced with fresh receiver solution. Efflux ratio is calculated dividing the Papp (b-a) values by the Papp (a-b) values.

Data on 13 molecules can be found in patent publication US11166958B2, “4-pyrazin-2-ylmethyl-morpholine derivatives and the use thereof as medicament” (Boehringer Ingelheim International GmbH, priority 2018, dated 2021).

Sequence of Nav1.6 channel (Q9UQD0 whole entry): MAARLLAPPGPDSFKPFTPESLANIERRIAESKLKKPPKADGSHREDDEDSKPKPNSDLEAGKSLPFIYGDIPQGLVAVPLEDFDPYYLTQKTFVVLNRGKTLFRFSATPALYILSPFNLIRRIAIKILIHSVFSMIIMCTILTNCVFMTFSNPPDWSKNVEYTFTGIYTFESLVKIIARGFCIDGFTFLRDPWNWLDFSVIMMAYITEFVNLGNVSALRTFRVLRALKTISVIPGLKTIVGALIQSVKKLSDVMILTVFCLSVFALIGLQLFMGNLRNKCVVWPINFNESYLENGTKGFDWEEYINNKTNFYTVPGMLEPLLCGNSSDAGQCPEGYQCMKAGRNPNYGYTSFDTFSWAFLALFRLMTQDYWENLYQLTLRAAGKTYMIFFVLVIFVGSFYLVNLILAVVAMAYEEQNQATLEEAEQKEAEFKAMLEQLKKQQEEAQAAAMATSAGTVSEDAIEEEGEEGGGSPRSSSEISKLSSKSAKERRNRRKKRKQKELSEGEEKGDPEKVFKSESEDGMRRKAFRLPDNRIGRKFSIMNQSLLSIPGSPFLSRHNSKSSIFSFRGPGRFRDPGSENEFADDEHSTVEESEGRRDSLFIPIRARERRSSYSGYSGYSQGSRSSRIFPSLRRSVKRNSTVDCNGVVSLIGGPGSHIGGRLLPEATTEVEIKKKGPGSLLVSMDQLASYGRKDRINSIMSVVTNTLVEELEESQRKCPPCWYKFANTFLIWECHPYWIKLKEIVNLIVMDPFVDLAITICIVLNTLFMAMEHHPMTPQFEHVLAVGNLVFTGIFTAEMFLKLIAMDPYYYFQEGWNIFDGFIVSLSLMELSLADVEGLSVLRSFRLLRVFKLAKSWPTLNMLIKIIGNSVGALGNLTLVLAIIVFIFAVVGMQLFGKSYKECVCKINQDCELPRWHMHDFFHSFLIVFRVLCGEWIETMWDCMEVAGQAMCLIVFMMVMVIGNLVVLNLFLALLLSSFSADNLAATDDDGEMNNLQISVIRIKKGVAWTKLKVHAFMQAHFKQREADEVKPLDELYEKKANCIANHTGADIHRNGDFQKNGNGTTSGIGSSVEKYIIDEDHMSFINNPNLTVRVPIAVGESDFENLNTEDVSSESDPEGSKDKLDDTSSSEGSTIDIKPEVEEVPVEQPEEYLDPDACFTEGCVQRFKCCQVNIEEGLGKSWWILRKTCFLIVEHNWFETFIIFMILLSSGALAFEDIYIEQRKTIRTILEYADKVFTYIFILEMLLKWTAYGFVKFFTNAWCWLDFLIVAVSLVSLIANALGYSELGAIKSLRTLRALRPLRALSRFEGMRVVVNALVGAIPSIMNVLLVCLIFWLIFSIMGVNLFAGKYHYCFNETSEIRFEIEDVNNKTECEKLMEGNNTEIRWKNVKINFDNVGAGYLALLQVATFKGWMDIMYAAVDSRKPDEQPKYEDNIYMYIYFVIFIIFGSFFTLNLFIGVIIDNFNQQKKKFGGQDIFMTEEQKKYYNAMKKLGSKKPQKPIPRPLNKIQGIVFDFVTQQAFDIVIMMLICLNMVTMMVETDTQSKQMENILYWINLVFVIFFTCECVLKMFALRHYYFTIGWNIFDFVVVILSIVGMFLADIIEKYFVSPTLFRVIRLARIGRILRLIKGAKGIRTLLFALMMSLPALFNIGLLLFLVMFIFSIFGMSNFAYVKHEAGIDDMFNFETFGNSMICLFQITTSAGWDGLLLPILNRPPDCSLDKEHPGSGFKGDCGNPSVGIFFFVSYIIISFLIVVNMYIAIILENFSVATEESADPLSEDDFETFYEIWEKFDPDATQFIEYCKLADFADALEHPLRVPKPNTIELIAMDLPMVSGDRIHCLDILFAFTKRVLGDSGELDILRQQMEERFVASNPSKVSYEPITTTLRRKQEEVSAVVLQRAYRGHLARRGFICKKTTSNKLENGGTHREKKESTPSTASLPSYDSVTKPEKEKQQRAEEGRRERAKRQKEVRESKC

The inhibition is the relative decrease from the control value, in per cent. One may read the Papp A→B as how fast a substance crosses the layer from the apical side. High values mean ready permeation, low ones poor permeation. As to `CNC(=O)[C@@H]1CN(Cc2cnc(Oc3ccc(F)cc3)cn2)CCO1` [Example 1], on Nav1.6 channel, the inhibition at 1 µM was -9% and the inhibition at 5 µM is 0.5%. At human MDR1 (P-gp), the apparent permeability from apical to basolateral (Papp A→B) at 2 h was 59 ×10⁻⁶ cm/s and the efflux ratio at 2 h was determined as 0.7.
For the molecule `CNC(=O)[C@@H]1CN(Cc2cnc(Oc3ccc(C)cc3F)cn2)CCO1` [Example 2], on Nav1.6 channel, the inhibition at 1 µM is -4.4% and the inhibition at 5 µM is -4%. At human MDR1 (P-gp), the apical-to-basolateral permeability (Papp A→B) at 2 h came to 76 ×10⁻⁶ cm/s and the efflux ratio at 2 h is 0.6.
Regarding `CNC(=O)[C@@H]1CN(Cc2cnc(Oc3ccc(C)cc3)cn2)CCO1` [Example 3], at Nav1.6 channel, the inhibition at 1 µM turned out to be 4.6% and the inhibition at 5 µM is 6.8%. For the same molecule, at human MDR1 (P-gp), the Papp A→B at 2 h turned out to be 75 ×10⁻⁶ cm/s and the efflux ratio at 2 h is 0.7.
In the case of `CNC(=O)[C@@H]1CN(Cc2cnc(Oc3ccc(C)cc3C)cn2)CCO1` [Example 4], on Nav1.6 channel, the inhibition at 1 µM is 3.4% and the inhibition at 5 µM worked out at 5%. Besides, on human MDR1 (P-gp), the apical-to-basolateral permeability (Papp A→B) at 2 h was 61 ×10⁻⁶ cm/s and the efflux ratio at 2 h stood at 0.7.
As for `CNC(=O)[C@@H]1CN(Cc2cnc(Oc3ccc(Cl)cc3F)cn2)CCO1` [Example 5], on Nav1.6 channel, the inhibition at 1 µM is -3.9% and the inhibition at 5 µM is 3.7%. Further, at human MDR1 (P-gp), the apical-to-basolateral permeability (Papp A→B) at 2 h is 59 ×10⁻⁶ cm/s and the efflux ratio at 2 h came out at 0.8.
As to `CNC(=O)[C@@H]1CN(Cc2cnc(Oc3ccc(F)cc3F)cn2)CCO1` [Example 6], at Nav1.6 channel, the inhibition at 1 µM worked out at 5.6% and the inhibition at 5 µM amounted to 0.2%. Further, at human MDR1 (P-gp), the apical-to-basolateral permeability (Papp A→B) at 2 h amounted to 71 ×10⁻⁶ cm/s and the efflux ratio at 2 h was determined as 0.8.
As for `CNC(=O)[C@@H]1CN(Cc2cnc(Oc3ccc(Cl)cc3)cn2)CCO1` [Example 7], at Nav1.6 channel, the inhibition at 1 µM was -9% and the inhibition at 5 µM was -15%. For the same molecule, the “inhibition of the Nav 1.6 channel” value on Nav1.6 channel (at 5 μM) is recorded as “not showing any significant inhibition”. For the same molecule, at human MDR1 (P-gp), the Papp A→B at 2 h turned out to be 66 ×10⁻⁶ cm/s and the efflux ratio at 2 h was determined as 0.7.
Consider `CNC(=O)[C@@H]1CN(Cc2cnc(Oc3ccc(F)cc3C)cn2)CCO1` [Example 8], for which, at Nav1.6 channel, the inhibition at 1 µM is 3% and the inhibition at 5 µM was determined as 1.1%. For the same molecule, on human MDR1 (P-gp), the apparent permeability from apical to basolateral (Papp A→B) at 2 h was 70 ×10⁻⁶ cm/s and the efflux ratio at 2 h is 0.6.
The corresponding values for `CNC(=O)[C@@H]1CN(Cc2cnc(Oc3ccccc3F)cn2)CCO1` [Example 9] are 0%, 4.6%, 62 ×10⁻⁶ cm/s and 0.9.
Turning to `CNC(=O)[C@@H]1CN(Cc2cnc(Oc3ccccc3Cl)cn2)CCO1` [Example 18], at Nav1.6 channel, the inhibition at 1 µM is -5% and the inhibition at 5 µM was -10%. On human MDR1 (P-gp), the Papp A→B at 2 h worked out at 61 ×10⁻⁶ cm/s and the efflux ratio at 2 h came out at 0.8.
Turning to `CCNC(=O)[C@@H]1CN(Cc2cnc(Oc3ccc(F)cc3F)cn2)CCO1` [Example 30], at Nav1.6 channel, the inhibition at 1 µM was -13.4% and the inhibition at 5 µM is -9.4%. Further, on human MDR1 (P-gp), the apical-to-basolateral permeability (Papp A→B) at 2 h amounted to 81 ×10⁻⁶ cm/s and the efflux ratio at 2 h came to 0.4.
`CCNC(=O)[C@@H]1CN(Cc2cnc(Oc3ccc(C)cc3F)cn2)CCO1` [Example 31]: on Nav1.6 channel, the inhibition at 1 µM is -5.8% and the inhibition at 5 µM was -7%. Besides, at human MDR1 (P-gp), the apical-to-basolateral permeability (Papp A→B) at 2 h amounted to 66 ×10⁻⁶ cm/s and the efflux ratio at 2 h amounted to 0.6.
For `CCNC(=O)[C@@H]1CN(Cc2cnc(Oc3ccccc3Cl)cn2)CCO1` [Example 33], on Nav1.6 channel, the inhibition at 1 µM was -10.5% and the inhibition at 5 µM was -6.6%. Besides, on human MDR1 (P-gp), the apical-to-basolateral permeability (Papp A→B) at 2 h was found to be 59 ×10⁻⁶ cm/s and the efflux ratio at 2 h worked out at 0.7.
